Where “and” joins values, the source holds several entries; their conditions need not be identical. Identical values can stand only once. After the bases stand the sugars from the 5' end (letter, count) and the backbone: PS all phosphorothioate, else s phosphorothioate and o phosphodiester by linkage. Methylation of C is not given here. e = 2'-O-(2-methoxyethyl) (MOE); k = constrained ethyl (cEt); d = 2'-deoxy (DNA)

The values below come from the OligoGym collection.

This data set addresses APOL1. Conditions: ASO.

“GTTCTAACTCTTGGGC (sugars kekddddeekkddddd, PS)” yielded a target mRNA inhibition (A431, 2 µM) of 86%.

In the case of “TGGGAATTATGGAATT (sugars kkddddekekeddddd, PS)”, where the note is “A431, 2 µM”, the target mRNA inhibition came out at 78%.

Sequence “AACGCAATGCTGACTT (sugars kkkddddkekeddddd, PS)” came in with a target mRNA inhibition (A431, 2 µM) of 83%.

In turn, “GTATTTCTTGATGTGG (sugars kkddddkdkdkddddd, PS)” registered a target mRNA inhibition (A431, 2 µM) of 87%.

As for CTTCTGTTAGATACAA (sugars k4 d9 k3, PS), the target mRNA inhibition runs as follows: (A431, 0.0625 µM) 46%; (A431, 0.25 µM) 73%; (A431, 1 µM) 90%.

“GAATTATGGAATTGCA (sugars kkkddddkekekdddd, PS)” came in with a target mRNA inhibition (A431, 2 µM) of 61%.

Take GCTTTAAACTCAGGTG (sugars k4 d9 k3, PS): the target mRNA inhibition (A431, 0.04 µM) is 11%; the target mRNA inhibition (A431, 0.25 µM) was 76% and 79%; the target mRNA inhibition (A431, 1 µM) is 91% and 89% and 82%.

Where the note is “A431, 2 µM”, “CGCAATGCTGACTTGG (sugars kkddddkdkdkddddd, PS)” had a target mRNA inhibition of 94%.

Consider TCCTTGCTGCACTGCC (sugars k4 d9 k3, PS), for which the target mRNA inhibition runs as follows: (A431, 0.0625 µM) 67%; (A431, 0.25 µM) 88%; (A431, 1 µM) 95%.

In turn, “AAGTATTGCCAGCTAA (sugars k2 d4 e3 k2 d5, PS)” came in with a target mRNA inhibition (A431, 2 µM) of 63%.

The sequence “TCTCATGGTACAGGAG (sugars kdddddkekekddddd, PS)” showed a target mRNA inhibition (A431, 2 µM) of 61%.

Sequence “GGAATTATGGAATTGC (sugars kekddddeekkddddd, PS)” yielded a target mRNA inhibition (A431, 0.0156 µM) of 23%; a target mRNA inhibition (A431, 0.0625 µM) of 63%; a target mRNA inhibition (A431, 0.25 µM) of 90%; a target mRNA inhibition (A431, 1 µM) of 97%; a target mRNA inhibition (A431, 2 µM) of 98%.

“GAAGATTGGCTCTGGC (sugars k2 d4 e3 k2 d5, PS)” yielded a target mRNA inhibition (A431, 2 µM) of 81%.

Regarding AAGTCAGTACAGAGCA (sugars k4 d9 k3, PS), the target mRNA inhibition is, setting by setting: (A431, 0.0625 µM) 52%; (A431, 0.25 µM) 79%; (A431, 1 µM) 89%.

“AGTTTTGTAAGTGCAA (sugars kkddddkekekddddd, PS)” yielded a target mRNA inhibition (A431, 2 µM) of 81%.

Turning to “GTATTTCTTGATGTGG (sugars kkkddddkekeddddd, PS)”, the target mRNA inhibition by setting is: (A431, 0.0156 µM) 50%; (A431, 0.0625 µM) 80%; (A431, 0.25 µM) 96%; (A431, 1 µM) 97%; (A431, 2 µM) 98%.

As for GTTTCATATTCACCCG (sugars k4 d9 k3, PS), the target mRNA inhibition is, setting by setting: (A431, 0.0625 µM) 82%; (A431, 0.25 µM) 92%; (A431, 1 µM) 97%.

Sequence “TCAGATGGGTACTTCT (sugars kkddddkdkdkddddd, PS)” gave a target mRNA inhibition (A431, 2 µM) of 88%.

For “ATTCTATTAGAGGGCT (sugars kkdddddkekeddddd, PS)”, where the note is “A431, 2 µM”, the target mRNA inhibition was determined as 78%.

For the sequence GTCATATCAGATGGGT (sugars k4 d9 k3, PS), the target mRNA inhibition reads like this: (A431, 0.0625 µM) 52%; (A431, 0.25 µM) 77%; (A431, 1 µM) 91%.

As to “GAGTATTGTTTTTGTG (sugars kkkddddkdkdkdddd, PS)”, the target mRNA inhibition (A431, 2 µM) stood at 54%.

Regarding “GTATTGTTTTTGTGGG (sugars kddddkekekeddddd, PS)”, where the note is “A431, 2 µM”, the target mRNA inhibition came to 70%.

Take “TTGTAAGTGCAACCAA (sugars k2 d4 e3 k2 d5, PS)”: the target mRNA inhibition (A431, 2 µM) came to 83%.

Where the note is “A431, 2 µM”, “GCAATGCTGACTTGGC (sugars kdddddkekekddddd, PS)” showed a target mRNA inhibition of 85%.

With “GCTAATTTTCTGACTG (sugars kekddddeekkddddd, PS)”, the target mRNA inhibition was determined as 13% (A431, 0.0156 µM); 42% (A431, 0.0625 µM); 69% (A431, 0.25 µM); 87% (A431, 1 µM); 94% (A431, 2 µM).
